One block for each compound: values may come before it.
Legend:
NCI-H226 = assay: Anticancer activity against human NCI-H226 cells assessed as cell growth inhibition incubated for 48 hrs by SRB assay; assay type: functional
A549 = assay: Anticancer activity against human A549 cells assessed as cell growth inhibition incubated for 48 hrs by SRB assay; assay type: functional
LOX IMVI = assay: Anticancer activity against human LOX IMVI cells assessed as total cell growth inhibition incubated for 48 hrs by SRB assay; assay type: functional
RPMI-8226 [1] = assay: Anticancer activity against human RPMI-8226 cells assessed as total cell growth inhibition incubated for 48 hrs by SRB assay; assay type: functional
OVCAR-3 = assay: Anticancer activity against human OVCAR-3 cells assessed as cell growth inhibition incubated for 48 hrs by SRB assay; assay type: functional
ACHN [2] = assay: Anticancer activity against human ACHN cells assessed as total cell growth inhibition incubated for 48 hrs by SRB assay; assay type: functional
Malme-3M = assay: Anticancer activity against human Malme-3M cells assessed as total cell growth inhibition incubated for 48 hrs by SRB assay; assay type: functional
UO-31 [3] = assay: Anticancer activity against human UO-31 cells assessed as cell growth inhibition incubated for 48 hrs by SRB assay; assay type: functional
HCC 2998 = assay: Anticancer activity against human HCC 2998 cells assessed as total cell growth inhibition incubated for 48 hrs by SRB assay; assay type: functional
Hs-578T [4] = assay: Anticancer activity against human Hs-578T cells assessed as cell growth inhibition incubated for 48 hrs by SRB assay; assay type: functional
BT-549 [5] = assay: Anticancer activity against human BT-549 cells assessed as total cell growth inhibition incubated for 48 hrs by SRB assay; assay type: functional
NCI-H460 = assay: Anticancer activity against human NCI-H460 cells assessed as total cell growth inhibition incubated for 48 hrs by SRB assay; assay type: functional
RPMI-8226 [6] = assay: Anticancer activity against human RPMI-8226 cells assessed as cell growth inhibition incubated for 48 hrs by SRB assay; assay type: functional
BT-549 [7] = assay: Anticancer activity against human BT-549 cells assessed as cell growth inhibition incubated for 48 hrs by SRB assay; assay type: functional
U-251 [8] = assay: Anticancer activity against human U-251 cells assessed as cell growth inhibition incubated for 48 hrs by SRB assay; assay type: functional
HT-29 = assay: Anticancer activity against human HT-29 cells assessed as total cell growth inhibition incubated for 48 hrs by SRB assay; assay type: functional
NCI/ADR-RES [9] = assay: Anticancer activity against human NCI/ADR-RES cells assessed as cell growth inhibition incubated for 48 hrs by SRB assay; assay type: functional
TK-10 = assay: Anticancer activity against human TK-10 cells assessed as cell growth inhibition incubated for 48 hrs by SRB assay; assay type: functional
Hs-578T [10] = assay: Anticancer activity against human Hs-578T cells assessed as total cell growth inhibition incubated for 48 hrs by SRB assay; assay type: functional
MDA-MB-468 = assay: Anticancer activity against human MDA-MB-468 cells assessed as cell growth inhibition incubated for 48 hrs by SRB assay; assay type: functional
[11] = n-Octanol/PBS partition coefficient, logD of the compound at pH 7.4; assay type: physicochemical
NCI/ADR-RES [12] = assay: Anticancer activity against human NCI/ADR-RES cells assessed as total cell growth inhibition incubated for 48 hrs by SRB assay; assay type: functional
SNB-75 = assay: Anticancer activity against human SNB-75 cells assessed as cell growth inhibition incubated for 48 hrs by SRB assay; assay type: functional
SW-620 = assay: Anticancer activity against human SW-620 cells assessed as cell growth inhibition incubated for 48 hrs by SRB assay; assay type: functional
COLO 205 = assay: Anticancer activity against human COLO 205 cells assessed as total cell growth inhibition incubated for 48 hrs by SRB assay; assay type: functional
U-251 [13] = assay: Anticancer activity against human U-251 cells assessed as total cell growth inhibition incubated for 48 hrs by SRB assay; assay type: functional
UO-31 [14] = assay: Anticancer activity against human UO-31 cells assessed as total cell growth inhibition incubated for 48 hrs by SRB assay; assay type: functional
ACHN [15] = assay: Anticancer activity against human ACHN cells assessed as cell growth inhibition incubated for 48 hrs by SRB assay; assay type: functional
NCI-H23 = assay: Anticancer activity against human NCI-H23 cells assessed as cell growth inhibition incubated for 48 hrs by SRB assay; assay type: functional
HOP-62 = assay: Anticancer activity against human HOP-62 cells assessed as cell growth inhibition incubated for 48 hrs by SRB assay; assay type: functional
SN12C = assay: Anticancer activity against human SN12C cells assessed as cell growth inhibition incubated for 48 hrs by SRB assay; assay type: functional
SK-MEL-2 = assay: Anticancer activity against human SK-MEL-2 cells assessed as total cell growth inhibition incubated for 48 hrs by SRB assay; assay type: functional
CCRF-CEM = assay: Anticancer activity against human CCRF-CEM cells assessed as cell growth inhibition incubated for 48 hrs by SRB assay; assay type: functional
MCF7 = assay: Anticancer activity against human MCF7 cells assessed as total cell growth inhibition incubated for 48 hrs by SRB assay; assay type: functional
Homo sapiens = species: Homo sapiens; assay: Inhibition of ABL (unknown origin) at 1 uM in presence of ATP by hotspot kinase assay
HOP-92 = assay: Anticancer activity against human HOP-92 cells assessed as total cell growth inhibition incubated for 48 hrs by SRB assay; assay type: functional
MDA-MB-231 = assay: Anticancer activity against human MDA-MB-231 cells assessed as total cell growth inhibition incubated for 48 hrs by SRB assay; assay type: functional
MDA-MB-435 = assay: Anticancer activity against human MDA-MB-435 cells assessed as total cell growth inhibition incubated for 48 hrs by SRB assay; assay type: functional
SF-268 = assay: Anticancer activity against human SF-268 cells assessed as total cell growth inhibition incubated for 48 hrs by SRB assay; assay type: functional
[16] = target: Dual specificity mitogen-activated protein kinase kinase 1 (Homo sapiens) (UniProt Q02750); assay: Inhibition of MEK1 (unknown origin) at 1 uM in presence of ATP by hotspot kinase assay
Dual specificity mitogen-activated protein kinase kinase 1 (Homo sapiens), sequence (Q02750 whole entry): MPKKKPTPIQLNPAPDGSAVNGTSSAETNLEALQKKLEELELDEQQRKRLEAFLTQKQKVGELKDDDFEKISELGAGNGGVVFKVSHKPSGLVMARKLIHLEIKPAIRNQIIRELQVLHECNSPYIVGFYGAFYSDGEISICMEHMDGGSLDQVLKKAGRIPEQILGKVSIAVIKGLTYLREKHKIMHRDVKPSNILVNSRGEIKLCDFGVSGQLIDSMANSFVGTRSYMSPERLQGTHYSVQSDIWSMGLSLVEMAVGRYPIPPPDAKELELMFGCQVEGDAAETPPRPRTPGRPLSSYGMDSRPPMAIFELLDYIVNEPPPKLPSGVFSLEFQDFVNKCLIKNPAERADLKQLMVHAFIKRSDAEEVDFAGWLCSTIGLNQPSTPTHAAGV

OVCAR-8 = assay: Anticancer activity against human OVCAR-8 cells assessed as cell growth inhibition incubated for 48 hrs by SRB assay; assay type: functional
HCT-15 [17] = assay: Anticancer activity against human HCT-15 cells assessed as total cell growth inhibition incubated for 48 hrs by SRB assay; assay type: functional
[18] = target: Receptor-type tyrosine-protein kinase FLT3 (Homo sapiens) (UniProt P36888); assay: Inhibition of FLT3 (unknown origin) at 1 uM in presence of ATP by hotspot kinase assay
Receptor-type tyrosine-protein kinase FLT3 (Homo sapiens), sequence (P36888 whole entry): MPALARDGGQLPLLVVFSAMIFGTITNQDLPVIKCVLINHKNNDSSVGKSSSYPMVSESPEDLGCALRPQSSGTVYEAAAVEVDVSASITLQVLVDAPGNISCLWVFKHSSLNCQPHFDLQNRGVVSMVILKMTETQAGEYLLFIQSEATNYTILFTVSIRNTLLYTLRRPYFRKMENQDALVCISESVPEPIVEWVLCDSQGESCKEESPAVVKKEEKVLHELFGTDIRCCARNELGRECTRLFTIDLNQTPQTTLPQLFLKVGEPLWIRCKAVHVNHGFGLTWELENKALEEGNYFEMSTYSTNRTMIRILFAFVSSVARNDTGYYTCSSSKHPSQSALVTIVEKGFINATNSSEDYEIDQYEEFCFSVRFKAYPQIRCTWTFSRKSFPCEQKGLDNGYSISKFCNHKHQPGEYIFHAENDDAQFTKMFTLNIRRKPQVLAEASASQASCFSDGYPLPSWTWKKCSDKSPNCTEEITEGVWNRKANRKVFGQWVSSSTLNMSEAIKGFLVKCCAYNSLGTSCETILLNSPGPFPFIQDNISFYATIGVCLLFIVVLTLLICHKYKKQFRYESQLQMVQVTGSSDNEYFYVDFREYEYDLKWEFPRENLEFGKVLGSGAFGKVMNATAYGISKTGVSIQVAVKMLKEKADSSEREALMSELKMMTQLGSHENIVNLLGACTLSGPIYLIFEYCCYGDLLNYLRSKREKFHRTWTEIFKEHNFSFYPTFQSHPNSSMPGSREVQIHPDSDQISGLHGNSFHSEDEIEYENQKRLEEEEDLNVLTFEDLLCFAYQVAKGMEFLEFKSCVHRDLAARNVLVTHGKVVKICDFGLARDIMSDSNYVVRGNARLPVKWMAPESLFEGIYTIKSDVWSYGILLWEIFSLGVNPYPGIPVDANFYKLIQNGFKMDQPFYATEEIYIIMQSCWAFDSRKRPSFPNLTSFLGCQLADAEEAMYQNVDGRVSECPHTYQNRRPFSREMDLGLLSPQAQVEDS

[19] = target: Platelet-derived growth factor receptor alpha (Homo sapiens) (UniProt P16234); assay: Inhibition of PDGFRalpha (unknown origin) at 1 uM in presence of ATP by hotspot kinase assay
Platelet-derived growth factor receptor alpha (Homo sapiens), sequence (P16234 whole entry): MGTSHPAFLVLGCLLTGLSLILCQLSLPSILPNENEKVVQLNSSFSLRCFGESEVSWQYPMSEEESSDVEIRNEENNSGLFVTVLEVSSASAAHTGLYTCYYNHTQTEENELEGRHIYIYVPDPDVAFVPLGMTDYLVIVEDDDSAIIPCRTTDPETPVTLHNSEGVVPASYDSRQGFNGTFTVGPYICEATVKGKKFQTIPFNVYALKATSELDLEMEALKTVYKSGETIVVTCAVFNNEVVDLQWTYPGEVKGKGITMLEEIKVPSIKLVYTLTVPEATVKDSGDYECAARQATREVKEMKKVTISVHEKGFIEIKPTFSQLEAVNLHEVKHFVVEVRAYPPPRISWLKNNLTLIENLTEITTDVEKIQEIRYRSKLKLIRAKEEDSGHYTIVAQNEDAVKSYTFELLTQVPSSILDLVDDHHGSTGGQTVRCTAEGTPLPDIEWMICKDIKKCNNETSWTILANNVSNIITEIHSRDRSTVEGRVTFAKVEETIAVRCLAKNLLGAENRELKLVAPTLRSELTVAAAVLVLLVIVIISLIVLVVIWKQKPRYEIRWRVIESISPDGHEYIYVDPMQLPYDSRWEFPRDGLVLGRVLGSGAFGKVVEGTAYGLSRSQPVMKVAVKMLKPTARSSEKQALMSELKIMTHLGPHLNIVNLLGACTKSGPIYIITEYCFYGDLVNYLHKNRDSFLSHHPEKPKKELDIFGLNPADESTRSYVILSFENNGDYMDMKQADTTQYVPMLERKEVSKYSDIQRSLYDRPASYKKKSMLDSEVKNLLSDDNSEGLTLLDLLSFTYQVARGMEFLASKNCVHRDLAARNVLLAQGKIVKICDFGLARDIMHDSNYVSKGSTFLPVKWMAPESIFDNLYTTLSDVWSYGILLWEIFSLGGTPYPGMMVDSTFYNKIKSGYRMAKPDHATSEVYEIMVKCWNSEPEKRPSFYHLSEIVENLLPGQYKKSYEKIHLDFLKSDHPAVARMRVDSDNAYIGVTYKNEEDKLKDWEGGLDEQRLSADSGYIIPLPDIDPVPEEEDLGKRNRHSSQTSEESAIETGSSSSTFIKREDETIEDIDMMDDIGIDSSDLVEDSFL

[20] = system: Serine/threonine-protein kinase B-raf (Homo sapiens), P15056 [V600E]; assay: Inhibition of B-RAF V600E mutant (unknown origin) at 1 uM in presence of ATP by hotspot kinase assay
Serine/threonine-protein kinase B-raf (Homo sapiens), P15056 [V600E], sequence (P15056 whole entry V600E): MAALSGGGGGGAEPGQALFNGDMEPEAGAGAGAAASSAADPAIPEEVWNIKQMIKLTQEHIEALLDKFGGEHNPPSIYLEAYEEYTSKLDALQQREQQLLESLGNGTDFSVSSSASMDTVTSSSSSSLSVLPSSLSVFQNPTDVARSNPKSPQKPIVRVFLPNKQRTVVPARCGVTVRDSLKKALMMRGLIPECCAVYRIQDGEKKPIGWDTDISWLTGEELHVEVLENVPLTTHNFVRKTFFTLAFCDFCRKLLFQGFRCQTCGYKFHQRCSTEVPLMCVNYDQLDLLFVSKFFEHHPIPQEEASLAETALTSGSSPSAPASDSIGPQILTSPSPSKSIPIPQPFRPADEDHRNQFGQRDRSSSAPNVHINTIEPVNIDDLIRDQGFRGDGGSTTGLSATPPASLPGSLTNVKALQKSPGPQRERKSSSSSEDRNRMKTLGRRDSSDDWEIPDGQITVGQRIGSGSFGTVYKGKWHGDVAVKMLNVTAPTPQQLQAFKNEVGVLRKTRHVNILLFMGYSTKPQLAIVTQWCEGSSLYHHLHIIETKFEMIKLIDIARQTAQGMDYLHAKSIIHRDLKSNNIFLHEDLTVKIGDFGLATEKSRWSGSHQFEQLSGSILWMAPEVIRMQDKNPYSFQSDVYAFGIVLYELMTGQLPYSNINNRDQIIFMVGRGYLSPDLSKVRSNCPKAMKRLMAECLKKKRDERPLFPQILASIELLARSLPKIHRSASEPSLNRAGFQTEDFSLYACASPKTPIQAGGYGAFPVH

HCT-15 [21] = assay: Anticancer activity against human HCT-15 cells assessed as cell growth inhibition incubated for 48 hrs by SRB assay; assay type: functional
PC-3 = assay: Anticancer activity against human PC-3 cells assessed as total cell growth inhibition incubated for 48 hrs by SRB assay; assay type: functional
786-0 = assay: Anticancer activity against human 786-0 cells assessed as cell growth inhibition incubated for 48 hrs by SRB assay; assay type: functional

GI50 (NCI-H226): 1.86 µM
GI50 (A549): 2.13 µM
GI50 (OVCAR-3): 1.52 µM
GI50 (RPMI-8226 [6]): 0.94 µM
GI50 (BT-549 [7]): 2.63 µM
GI50 (U-251 [8]): 1.76 µM
GI50 (MDA-MB-468): 0.47 µM
logD [11]: 2.73
GI50 (SW-620): 5.52 µM
GI50 (ACHN [15]): 2.03 µM
GI50 (NCI-H23): 1.12 µM
GI50 (CCRF-CEM): 1.45 µM
inhibition (Homo sapiens): -5.6%
inhibition [16]: 21.7%
GI50 (OVCAR-8): 2.67 µM
inhibition [18]: 13.2%
inhibition [19]: 23.2%
inhibition [20]: 28.5%
GI50 (HCT-15 [21]): 3.18 µM
GI50 (786-0): 1.89 µM
SMILES: COc1cc2cc(Oc3ccc(NC(=O)Nc4ccc(Cl)c(C(F)(F)F)c4)cc3)c(C)nc2cc1OCCN1CCOCC1
TGI (LOX IMVI): 2.81 µM
TGI (RPMI-8226 [1]): 4.34 µM
TGI (ACHN [2]): 11.6 µM
TGI (Malme-3M): 3.27 µM
GI50 (UO-31 [3]): 1.4 µM
TGI (HCC 2998): 11.1 µM
GI50 (Hs-578T [4]): 1.83 µM
TGI (BT-549 [5]): 9.33 µM
TGI (NCI-H460): 3.62 µM
TGI (HT-29): 11.2 µM
GI50 (NCI/ADR-RES [9]): 2.34 µM
GI50 (TK-10): 4.97 µM
TGI (Hs-578T [10]): 5.11 µM
TGI (NCI/ADR-RES [12]): 12.6 µM
GI50 (SNB-75): 1.65 µM
TGI (COLO 205): 3.78 µM
TGI (U-251 [13]): 3.9 µM
TGI (UO-31 [14]): 3.34 µM
GI50 (HOP-62): 2.05 µM
GI50 (SN12C): 2.56 µM
TGI (SK-MEL-2): 4.06 µM
TGI (MCF7): 3.33 µM
TGI (HOP-92): 6.17 µM
TGI (MDA-MB-231): 5.07 µM
TGI (MDA-MB-435): 4.1 µM
TGI (SF-268): 8.44 µM
TGI (HCT-15 [17]): 3.18 µM
TGI (PC-3): 6 µM

GI50 (NCI-H226): 2.55 µM
GI50 (A549): 2.57 µM
GI50 (OVCAR-3): 2.94 µM
GI50 (RPMI-8226 [6]): 1.12 µM
GI50 (BT-549 [7]): 2.44 µM
GI50 (U-251 [8]): 2.83 µM
GI50 (MDA-MB-468): 0.45 µM
logD [11]: 2.54
GI50 (SW-620): 3.34 µM
GI50 (ACHN [15]): 2.3 µM
GI50 (NCI-H23): 1.43 µM
GI50 (CCRF-CEM): 1.72 µM
inhibition (Homo sapiens): -0.53%
inhibition [16]: 13.1%
GI50 (OVCAR-8): 2.73 µM
inhibition [18]: 28.4%
inhibition [19]: 18.3%
inhibition [20]: 24.8%
GI50 (HCT-15 [21]): 1.73 µM
GI50 (786-0): 1.73 µM
SMILES: COc1cc2cc(Oc3ccc(NC(=O)Nc4ccc(F)c(C(F)(F)F)c4)cc3)c(C)nc2cc1OCCN1CCOCC1
TGI (LOX IMVI): 2.86 µM
TGI (RPMI-8226 [1]): 4.25 µM
TGI (ACHN [2]): 11.4 µM
TGI (Malme-3M): 3.24 µM
GI50 (UO-31 [3]): 1.71 µM
TGI (HCC 2998): 16.7 µM
GI50 (Hs-578T [4]): 2.12 µM
TGI (BT-549 [5]): 8.46 µM
TGI (NCI-H460): 5.34 µM
TGI (HT-29): 21.8 µM
GI50 (NCI/ADR-RES [9]): 2.56 µM
GI50 (TK-10): 4.94 µM
TGI (Hs-578T [10]): 8.9 µM
TGI (NCI/ADR-RES [12]): 12.1 µM
GI50 (SNB-75): 1.96 µM
TGI (COLO 205): 4.28 µM
TGI (U-251 [13]): 11.1 µM
TGI (UO-31 [14]): 10.6 µM
GI50 (HOP-62): 3.99 µM
GI50 (SN12C): 2.65 µM
TGI (SK-MEL-2): 7.58 µM
TGI (MCF7): 3.48 µM
TGI (HOP-92): 4.96 µM
TGI (MDA-MB-231): 9.02 µM
TGI (MDA-MB-435): 3.9 µM
TGI (SF-268): 19.8 µM
TGI (HCT-15 [17]): 4.19 µM
TGI (PC-3): 10.1 µM

From ChEMBL document CHEMBL5113398, “Design and synthesis of new quinoline derivatives as selective C-RAF kinase inhibitors with potent anticancer activity” (Eur J Med Chem, 2022)
